Assay results taken from PMC12643509, “High-throughput screens identify genotype-specific therapeutics for channelopathies” (JCI Insight, 2025).
Values joined by “and” are separate entries in the source; they are usually repeats but may differ in a detail not shown here. Equal entries are not always repeated.

Biological target: WT Kv11.1 (Homo sapiens, UniProt Q12809)
Assay: Whole-cell patch-clamp electrophysiology, drug in bath solution, WT
Format: cell-based
Set-up: expressed in transfected cells; Activation tail currents / Steady-state currents / Time constants of activation (τ): unit not given here
Details: for Figure 4B value per cell vs Voltage (mV): individual replicates; for peak tail currents (I-V relationship) / Steady-state currents / Activation tail currents: WT, individual cells; for peak tail currents (I-V relationship): evacetrapib 15 μmol/L in bath; for Steady-state currents / Activation tail currents: evacetrapib 15 μmol/L; for Activation tail currents: tail at –40 mV
Source text: Peak stea dy-sta te current was
Tail current was fit with a […]

WT Kv11.1, sequence (Q12809 whole entry): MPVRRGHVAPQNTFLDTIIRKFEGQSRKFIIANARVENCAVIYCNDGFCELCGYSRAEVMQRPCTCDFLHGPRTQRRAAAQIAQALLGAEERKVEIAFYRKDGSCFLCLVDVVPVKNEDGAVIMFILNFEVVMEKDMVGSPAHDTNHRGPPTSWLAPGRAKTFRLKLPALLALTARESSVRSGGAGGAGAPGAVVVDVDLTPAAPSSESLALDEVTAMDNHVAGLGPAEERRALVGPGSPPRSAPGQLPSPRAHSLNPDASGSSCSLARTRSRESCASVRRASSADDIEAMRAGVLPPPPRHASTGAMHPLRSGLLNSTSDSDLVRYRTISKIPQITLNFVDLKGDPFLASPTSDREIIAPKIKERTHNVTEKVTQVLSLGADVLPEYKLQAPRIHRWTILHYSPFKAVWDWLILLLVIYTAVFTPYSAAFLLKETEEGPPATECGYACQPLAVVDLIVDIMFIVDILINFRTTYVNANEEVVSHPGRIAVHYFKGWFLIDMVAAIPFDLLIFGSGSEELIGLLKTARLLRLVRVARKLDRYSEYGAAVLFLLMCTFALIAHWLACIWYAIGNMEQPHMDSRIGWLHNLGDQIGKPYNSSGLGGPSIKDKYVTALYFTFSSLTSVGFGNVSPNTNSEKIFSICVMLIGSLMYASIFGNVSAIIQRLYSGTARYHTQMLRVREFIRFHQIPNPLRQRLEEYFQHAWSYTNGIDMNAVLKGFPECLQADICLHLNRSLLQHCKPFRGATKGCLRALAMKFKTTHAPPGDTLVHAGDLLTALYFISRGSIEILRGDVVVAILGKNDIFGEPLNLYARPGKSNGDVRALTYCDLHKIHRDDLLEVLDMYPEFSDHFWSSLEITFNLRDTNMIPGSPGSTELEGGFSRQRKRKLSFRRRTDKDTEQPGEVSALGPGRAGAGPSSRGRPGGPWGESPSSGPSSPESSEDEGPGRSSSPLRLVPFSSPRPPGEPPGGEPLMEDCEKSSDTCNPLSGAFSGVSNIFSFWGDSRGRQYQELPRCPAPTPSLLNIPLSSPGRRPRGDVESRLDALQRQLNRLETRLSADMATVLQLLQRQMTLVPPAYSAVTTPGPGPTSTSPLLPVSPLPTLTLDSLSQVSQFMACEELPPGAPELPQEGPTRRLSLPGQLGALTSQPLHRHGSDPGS

For `Cc1cc(C)c2c(c1)[C@@H](N(Cc1cc(C(F)(F)F)cc(C(F)(F)F)c1)c1nnn(C)n1)CCCN2C[C@H]1CC[C@H](C(=O)O)CC1` [Evacetrapib, evacetrapib], the “Figure 4B value per cell vs Voltage (mV)” value (Voltage 40 mV) was 2.999 and 3.548 and 3.503 and 3.618 and 3.396, the “Figure 4B value per cell vs Voltage (mV)” value (Voltage 50 mV) was 2.259 and 2.688 and 2.663 and 2.777 and 2.566 and the “Figure 4B value per cell vs Voltage (mV)” value (Voltage 60 mV) was 1.878 and 2.068 and 2.124 and 2.21 and 2.021. For the same compound, the “Figure 4B value per cell vs Voltage (mV)” value (Voltage 70 mV) was 1.522 and 1.6561 and 1.697 and 1.79 and 1.58, the “peak tail currents (I-V relationship)” value (Voltage (mV) 0) was 108.731 and 68.2281 and 79.8578 and 105.108 and 89.4676 and 63.9693 and 63.3317 and 23.2206 and 38.9777 and 18.6844 and the Steady-state currents (Voltage (mV) 0) was 40.4395 and 14.6593 and 23.6253 and 10.7424 and 12.2745 and 25.059 and 13.3557 and 25.8785 and 25.7792 and 48.7186 and 28.6917. The Activation tail currents (Voltage (mV) 0) was 45.6244 and 25.343 and 54.0146 and 31.4245 and 29.2272 and 68.7383 and 34.1486 and 20.8925 and 71.2996 and 102.774 and 57.7045, the “peak tail currents (I-V relationship)” value (Voltage (mV) 10) was 93.1489 and 60.1622 and 69.939 and 86.7676 and 75.6735 and 55.3784 and 40.7784 and 17.5354 and 25.5833 and 12.8315 and the Steady-state currents (Voltage (mV) 10) was 32.8981 and 20.4014 and 36.7833 and 17.1944 and 20.5841 and 27.8135 and 21.9511 and 36.7956 and 27.3543 and 47.5782 and 26.4245. The Activation tail currents (Voltage (mV) 10) was 61.4581 and 36.6943 and 61.1695 and 48.7606 and 43.5182 and 102.425 and 47.3892 and 33.802 and 80.7764 and 116.916 and 59.6106, the “peak tail currents (I-V relationship)” value (Voltage (mV) 20) was 76.997 and 51.8869 and 61.5888 and 71.295 and 62.4196 and 45.36 and 26.1159 and 13.7511 and 17.275 and 9.104 and the Steady-state currents (Voltage (mV) 20) was 22.6993 and 18.9152 and 37.889 and 17.2911 and 21.9338 and 23.7154 and 29.6022 and 43.1925 and 20.5026 and 37.4057 and 19.7431. The Activation tail currents (Voltage (mV) 20) was 71.9787 and 45.4439 and 63.7225 and 61.2461 and 53.0993 and 122.955 and 54.7189 and 46.6431 and 82.6403 and 123.849 and 59.1491, the “peak tail currents (I-V relationship)” value (Voltage (mV) 30) was 61.9853 and 42.564 and 49.6862 and 55.8776 and 49.9256 and 37.5621 and 17.4891 and 11.2899 and 12.2347 and 6.843 and the Steady-state currents (Voltage (mV) 30) was 13.8134 and 15.2335 and 30.8124 and 15.3878 and 19.0656 and 16.8628 and 32.7435 and 42.003 and 14.0184 and 26.2752 and 15.6099. For the same compound, the Activation tail currents (Voltage (mV) 30) was 78.4549 and 49.9729 and 64.1927 and 68.2058 and 57.9705 and 130.879 and 57.8601 and 56.5419 and 81.1964 and 126.769 and 58.6074, the “peak tail currents (I-V relationship)” value (Voltage (mV) 40) was 49.0637 and 36.1043 and 40.7824 and 44.6525 and 42.1084 and 30.3986 and 12.7193 and 9.659 and 9.23 and 5.4472 and the Steady-state currents (Voltage (mV) 40) was 8.152. The Activation tail currents (Voltage (mV) 40) was 80.9925 and 51.9387 and 63.2186 and 69.4712 and 59.5512 and 133.68 and 59.6841 and 61.1492 and 78.5713 and 128.32 and 57.9252, the “peak tail currents (I-V relationship)” value (Voltage (mV) -10) was 121.614 and 76.2939 and 89.915 and 120.029 and 102.147 and 69.7054 and 87.5927 and 30.4321 and 56.9661 and 25.473 and the Steady-state currents (Voltage (mV) -10) was 39.4793 and 7.634 and 11.4994 and 5.42 and 5.3991 and 14.8809 and 6.707 and 15.12 and 14.6222 and 35.1249 and 21.6894. For the same compound, the “peak tail currents (I-V relationship)” value (Voltage (mV) -20) was 131.419 and 84.709 and 100.756 and 135.254 and 114.81 and 74.7542 and 102.167 and 37.4476 and 77.7339 and 32.9646, the Steady-state currents (Voltage (mV) -20) was 32.9524 and 3.6817 and 4.46 and 2.8711 and 2.362 and 6.4831 and 3.43 and 7.428 and 4.804 and 18.1098 and 9.611 and the Activation tail currents (Voltage (mV) -20) was 15.0143. The “peak tail currents (I-V relationship)” value (Voltage (mV) -30) was 132.826 and 89.7021 and 107.215 and 142.287 and 124.198 and 74.8335 and 106.966 and 44.1713 and 97.481 and 39.1658, the Steady-state currents (Voltage (mV) -30) was 26.2905 and 2.297 and 2.248 and 2.097 and 1.35 and 2.687 and 2.39 and 4.071 and 1.181 and 8.895 and 2.9695 and the Activation tail currents (Voltage (mV) -30) was 7.534 and 3.411 and 6.987 and 3.037 and 3.42 and 5.381 and 4.729 and 3.695 and 5.67 and 20.6644 and 10.955. The “peak tail currents (I-V relationship)” value (Voltage (mV) -40) was 123.894 and 91.9717 and 106.938 and 138.26 and 129.161 and 68.3308 and 100.665 and 47.0658 and 110.15 and 41.9127, the Steady-state currents (Voltage (mV) -40) was 22.4974 and 1.925 and 1.695 and 1.5162 and 1.5185 and 1.713 and 2.12 and 2.908 and -0.105 and 5.52 and 1.124 and the Activation tail currents (Voltage (mV) -40) was 4.388 and 2.505 and 3.124 and 2.236 and 2.355 and 2.6537 and 2.736 and 2.76 and 1.5226 and 9.99 and 3.792. The “peak tail currents (I-V relationship)” value (Voltage (mV) -50) was 102.384 and 84.1154 and 96.6044 and 116.609 and 127.372 and 55.6691 and 86.621 and 46.497 and 109.939 and 41.3172, the Steady-state currents (Voltage (mV) -50) was 1.688 and 1.554 and 1.143 and 1.161 and 1.645 and 1.646 and 2.0814 and 1.85 and -0.735 and 4.1055 and 0.8628 and the Activation tail currents (Voltage (mV) -50) was 3.7007 and 2.582 and 2.251 and 2.025 and 2.032 and 1.953 and 2.466 and 2.6 and 0.4988 and 7.116 and 1.746. For the same compound, the Activation tail currents (Voltage (mV) -60) was 4.229 and 3.296 and 2.251 and 1.856 and 2 and 1.917 and 2.331 and 2.577 and 0.3413 and 6.751 and 1.786, the “Figure 4B value per cell vs Voltage (mV)” value (Voltage -10 mV) was 14.8044 and 13.7126 and 12.9375 and 13.3319 and 13.3961 and the “Figure 4B value per cell vs Voltage (mV)” value (Voltage -20 mV) was 17.0235 and 15.2047 and 14.605 and 15.0846 and 15.5938.
